Measured values reported in patent US20140163082A1, “PYRAZOLYL COMPOUNDS FOR USE IN REVERSING REACTIVE GLIOSIS” (priority 2011, published 2014).

Experiments:
[1] = system: hRMVECs cocultured with rMC-1 cells; experiment: Cell proliferation in a co-culture system model (MTT); assay type: cell-based, human; conditions: rMC-1 cells treated with YC-1 100 μM for 24 hours, normoxic and hypoxic conditions
Method: To test the influence of Móller cells [rMC-1] on the hRMVECs proliferation, rMC-1 [2×10^5 cells cm—2] were plated in a transwell insert [Millipore, Billerica, Mass.] with […] pores and allowed to adhere overnight in 150 μL of CS—C complete medium [Cell Systems, Kirkland, Wash.], supplemented with 10% FBS and incubated at 37° C. under normoxic [5% CO2/95% air]. The rMC-1 cells were then incubated under normoxic [5% CO2/95% air], or hypoxic conditions. To establish hypoxic conditions, cells were placed in airtight chambers [BioSpherix, Redfield, N.Y.] that were flushed with a gas mixture of 5% CO2 and 95% N2. Oxygen concentrations within these chambers were maintained at 1.2% using Pro-Ox Model 110 O2 regulators. After treating the r-MC-1 cells with YC-1 [100 μM] for 24 hours, the insert was then placed into 24 well-plates, in which hRMVECs were plated at 5×10^3 cells cm^−2 and allowed to adhere overnight [FIG. 7B]. hRMVECs proliferation was evaluated using 3, […]-2,5-diphenyl tetrazolium bromide [MTT] colorimetric assay [Mosmann,1983], at 24, 48, 72, and 96 hours after coculture. During the last 4 hours of each day, […] of 5 mg/ml MTT [Millipore, Billerica, Mass.] was added in each well. Formed Formazan crystals were dissolved in […] DMSO and optical density was recorded at 492 nm. Experiments were performed on at least three independent occasions. […]

R28 cells = experiment: Western blot, R28; assay type: cell-based, rat; conditions: R28, hypoxia 48 hours, YC-1 25-100 μM
Method: Cells were placed in airtight chambers [BioSpherix, Redfield, N.Y.] and the O2 tension was maintained at 1.2% by using Pro-Ox Model 110 O2 regulator [BioSpherix, Redfield, N.Y.]. The chamber was purged with a gas mixture of 5.32% CO2, and 93.48% N2. […] Müller cells [rMC-1] and […] cells were seeded overnight in 6-well plates [10^5 cells/well]. Cells were treated with either YC-1 [25-100 μM] or DMSO [0.2% v/v] for 48 hours under normoxic or hypoxic environments. Reactions were terminated by addition of lysis buffer [Cell Signaling, Beverly, Mass.]. Protein content of the cell lysates was determined according to the Bradford method [Bio-Rad, Hercules, Calif.]. Aliquots [40 μg] of whole-cell lysates were separated on 7.5% SDS-PAGE, and electro-transferred onto polyvinylidene membranes [Amersham Pharmacia Biotech, Little Chalfont]. After blocking with 5% nonfat dry milk in TBS-T, the blots were incubated overnight with anti-iNOS [at 1:100] and anti-β-actin [internal control] antibodies. Then blots were washed 3×10 min washes in PBS/tween and subsequently incubated with peroxidase-conjugated anti-mouse IgG secondary antibody at 1:3000. The signals were obtained by enhanced chemiluminescence [Amersham Biosciences], and visualized by exposure to X-ray film. Upon completion of chemiluminescence, equal lane loading was checked by Ponceau S Solution [Sigma, St. Louis, Mo.]. X-ray films were scanned with a computer-assisted densitometer [model G-710; Bio-Rad] to quantify band optical density [Quantity One software; Bio-Rad].

[2] = system: human retinal microvascular EC; conditions: refs [16, 17, 18]; cited from earlier work

## OCc1ccc(-c2nn(Cc3ccccc3)c3ccccc23)o1 [YC-1, 3-(5′-hydroxymethyl-2′-furyl)-1-benzylindazole]
[1]
  proliferation of hRMVECs in coculture: significantly suppressed
R28 cells; vs DMSO-treated hypoxic cells
  HIF-1 protein level (Western blot): inhibited the hypoxia-induced upregulation
  PDGF-B protein level (Western blot): inhibited the hypoxia-induced upregulation
  VEGF protein level (Western blot): inhibited the hypoxia-induced upregulation
  iNOS protein level (Western blot): inhibited the hypoxia-induced upregulation
R28 cells; vs non-treated hypoxic cells
  GFAP protein level (Western blot): inhibited the hypoxia-induced GFAP protein levels in a dose-dependent manner
[2]
  HIF-1α, HIF-2α, VEGF, EPO, ET-1, and MMP-9 protein levels: down-regulates
